Key:
[1] = test system: RAW 264.7 cells; assay: Direct effects on RAW 264.7 cell viability (MTT); format: cell-based, murine
Description: The direct effects of CP and its analogues on RAW 264.7 viability were evaluated using the MTT method. RAW 264.7 cells were seeded at 1 × 10^4 cells/well (for 24 h incubation) and 5 × 10^3 cells/well (for 48 h incubation) and incubated overnight to allow adhesion. The culture medium was carefully aspirated and replaced with 100 μL DMEM plus 100 μL of test compound solutions, yielding final concentrations ranging from 3.25 to 30 µM (DMSO 1%, v/v). After 24 or 48 h of exposure to test compounds, cells were incubated with MTT (0.5 mg/mL) for 3 h. The resulting formazan crystals were dried, dissolved in DMSO, and absorbance was measured at 570 nm using a microplate reader (EL800, BioTek, Winooski, VT, USA). The precipitated purple formazan crystals were directly proportional to the number of metabolically active viable cells. The cell viability was then calculated as: Cell viability (%) = (Sample absorbance/Control absorbance) × 100. Data were expressed as mean of cell viability ± standard error of the mean from three to four independent experiments performed in triplicate.

[2] = test system: M. smegmatis within RAW 264.7 macrophages; assay: Therapeutic potential in M. smegmatis-infected RAW 264.7 cells (CFU); format: cell-based, Mycobacterium smegmatis; details: 15, 7.5 and 3.25 µM, 24 h
Description: For the first in vitro infection test with M. smegmatis, RAW 264.7 were seeded in 96-well culture plates at a density of 1 × 10^4 cells/well in DMEM medium (with 10% FBS, without antibiotics) and incubated overnight at 37 °C with 5% CO2 [20]. Infection of RAW 264.7 cells with M. smegmatis mc^2155 was performed at a multiplicity of infection of 1:1 for 2 h at 37 °C with 5% CO2. The medium with non-internalized bacteria was removed, and infected cells were then treated with the tested substances in DMEM: CP (15 µM, 7.5 µM and 3.25 µM), CA (30 µM, 15 µM, 7.5 µM and 3.25 µM), DE (15 µM, 7.5 µM and 3.25 µM), and DP (15 µM, 7.5 µM and 3.25 µM). Macrophages were lysed after 24 h with 0.1% Triton–X100, and these suspensions were diluted and plated on LB. CFU was determined after incubation of plates for 3 days at 37 °C. CFU numbers were expressed as log (CFU/well).

[3] = test system: Mycobacterium smegmatis mc2155; assay: M. smegmatis susceptibility by CFU enumeration; format: cell-based
[4] = test system: M. tuberculosis H37Ra; assay: M. tuberculosis susceptibility by CFU enumeration; format: cell-based, Mycobacterium tuberculosis; details: 0.03 μM, 48 h of treatment, positive control
Description: Next, CP, CA, and DE were diluted in Middlebrook 7H9 plus 10% OADC for the cellular susceptibility assay with M. tuberculosis H37Ra to yield concentrations up to 15 µM, 30 µM, and 15 µM, respectively. RIF at 0.03 µM was used as a positive control. The final DMSO concentration in all wells was 2.5%. The M. tuberculosis suspension was diluted in 7H9 plus 10% OADC to achieve an optical density of 0.006 at 595 nm, and 100 μL was then added to each well. Plates were covered, sealed with parafilm, and incubated at 37 °C for 48 h. After incubation, aliquots were removed, diluted, and plated in Middlebrook 7H10 agar plus 10% OADC. Plates were incubated at 37 °C for 4 weeks, and CFU were counted. CFU numbers were expressed as log10(CFU/mL).

CCCCCOC(=O)/C1=C/c2c([nH]c3ccccc23)/C(C(=O)OCCCCC)=C\c2c1[nH]c1ccccc21 [diamyl, (6E,13E)-dipentyl 5,12-dihydrocycloocta[1,2-b:5,6-b′]diindole-6,13-dicarboxylate]
effect on RAW 264.7 cell viability ([1]; 24 h incubation, 3.25 to 30 µM): affected cell viability at all concentrations assessed

CC(C)COC(=O)/C1=C/c2c([nH]c3ccccc23)/C(C(=O)OCC(C)C)=C\c2c1[nH]c1ccccc21 [Diisobutyl, (6E,13E)-diisobutyl 5,12-dihydrocycloocta[1,2-b:5,6-b′]diindole-6,13-dicarboxylate]
effect on RAW 264.7 cell viability ([1]; 24 h incubation, 3.25 to 30 µM): affected cell viability at the three highest concentrations assessed

CCCOC(=O)/C1=C/c2c([nH]c3ccccc23)/C(C(=O)OCCC)=C\c2c1[nH]c1ccccc21 [DP, (6E,13E)-dipropyl 5,12-dihydrocycloocta[1,2-b:5,6-b′]diindole-6,13-dicarboxylate]
effect on intracellular M. smegmatis growth in RAW 264.7 [2]: no inhibitory effect
effect on RAW 264.7 cell viability ([1]; 24 h incubation, 3.25 to 30 µM): did not affect viability at any of the concentrations tested
effect on RAW 264.7 cell viability ([1]; 48 h incubation): did not affect cell viability at any concentration evaluated
reduction of M. smegmatis viability ([3]; 30 μM, 24 h incubation): 0.639 log10 CFU

CO[C@H]1/C=C/O[C@@]2(C)Oc3c(C)c(O)c4c(O)c(c(/C=N/N5CCN(C)CC5)c(O)c4c3C2=O)NC(=O)/C(C)=C\C=C\[C@H](C)[C@H](O)[C@@H](C)[C@@H](O)[C@@H](C)[C@H](OC(C)=O)[C@@H]1C [RIF, Rifampicin, reference compound]
reduction of M. tuberculosis bacterial burden [4]: 0.362 log10 CFU/mL
reduction of M. smegmatis CFU count ([3]; 31 μM, 24 h of incubation, positive control): 3.41 log10
